Laboratory results taken from patent publication US11332463B2, “Spiropiperidine allosteric modulators of nicotinic acetylcholine receptors” (Merck Sharp & Dohme Corp., priority 2018, dated 2022).
Read-outs that look alike come from different tables or passages of the source.

Target: T1, human α7 nicotinic acetylcholine receptor (HEK cell line stably expressing human RIC-3 and human α7) (Homo sapiens, UniProt P36544)
T1 construct: host or cells: HEK cell line (PrecisION hnAChR α7/RIC-3)
Assay: Automated patch-clamp electrophysiology functional assay (Assay A), IonFlux HT, whole-cell population patch
Format: cell-based
Protocol: The α7 nAChR positive allosteric modulator (PAM) activity of the present compounds may be tested using assays known in the art. […] The assay was performed using the IonFlux HT in a whole-cell, population patch configuration. See Golden et al. Assay Drug Dev. Technol. […] The compounds were assessed for their ability to modulate the function of the human 7 nAChR stably expressed in a HEK cell line both in the presence, and in the absence of the natural 7 agonist acetylcholine. By performing a series of such measurements at different concentrations, the effective concentration of the 7 nAChR PAMs (EC50) was determined. See Spencer et al. Assay Drug Dev. Technol.
Direct activation of α7 (agonism), and potentiation of acetylcholine-evoked 7 currents was determined as follows:
Automated patch-clamp electrophysiology was performed using the IonFlux HT (Fluxion Biosciences Inc., San Francisco, Calif.) in the whole-cell, population patch configuration. Test compounds were assessed for their ability to modulate the function of the α7 nicotinic acetylcholine receptor both in the presence, and in the absence of the natural α7 agonist acetylcholine. […] Immediately prior to assay, cells were detached by first aspirating growth media, rinsing with Dulbecco's phosphate buffered saline, and then adding 10 mL of Accutase (Innovative Cell Technologies, San Diego, Calif.) to the flask and then incubating at 37° C. for 5 minutes. Detached cells were then recovered by the addition of 40 mL of CHO-serum-free media supplemented with 25 mM HEPES, and rocked gently in a 50 mL conical tube for 20 minutes prior to patch-clamp assay. After recovery, cells were pelleted by centrifugation at 1,000 RPM for 1 minute in a compact bench top centrifuge; recovery media was aspirated and cells were resuspended in external recording solution (150 mM NaCl, 5 mM KCl, 2 mM CaCl2), 1 mM MgCl2, 10 mM HEPES, 12 mM dextrose) to a density of 5.0×10^6 cells/mL. The cell suspension was added to the cell inlet wells on an IonFlux HT population patch plate which had previously been rinsed and primed with deionized H2O. Test compounds were serially diluted in DMSO and then resuspended to the final test concentration in external recording solution, with, or without 40 μM acetylcholine added to the external recording solution; test compounds were then transferred to the IonFlux HT population patch plate. Internal recording solution (110 mM TrisPO4, 28 mM TrisBase, 0.1 mM CaCl2, 2 mM MgCl2, 11 mM EGTA, 4 mM MgATP) was added to the internal recording solution inlet wells on the IonFlux HT patch plate previously loaded with cells and test compounds, and the plate loaded into the IonFlux HT instrument. A protocol was executed on the IonFlux HT to trap the cells, break into the cells, and establish the whole-cell recording configuration; cells were voltage-clamped at a holding potential of −60 mV for the duration of the experiment, all experiments were conducted at room temperature, and the IonFlux HT injection pressure was 8 psi for solution applications. Upon establishing the whole-cell configuration, external recording solution was perfused into the recording chambers for 120 seconds and then 40 μM acetylcholine was applied for 1 second and immediately washed off with external recording solution for 60 seconds. The 40 μM acetylcholine-evoked α7 current served as the current response to which subsequent test compound effects, in the presence, or in the absence of 40 μM acetylcholine would be quantified relative to. Next, test compounds were evaluated at multiple concentrations for their ability to induce, or modulate 7 current responses; three concentrations of test compound were evaluated in ascending dose fashion per recording.

[1] = HEK cells expressing human α7/RIC-3, test compound with or without 40 μM acetylcholine, holding potential −60 mV, room temperature, read-out: α7 nAChR Potency
[2] = automated patch-clamp electrophysiology functional assay (Assay A), read-out: α7 nAChR EC50

T1 sequence (P36544 23-502): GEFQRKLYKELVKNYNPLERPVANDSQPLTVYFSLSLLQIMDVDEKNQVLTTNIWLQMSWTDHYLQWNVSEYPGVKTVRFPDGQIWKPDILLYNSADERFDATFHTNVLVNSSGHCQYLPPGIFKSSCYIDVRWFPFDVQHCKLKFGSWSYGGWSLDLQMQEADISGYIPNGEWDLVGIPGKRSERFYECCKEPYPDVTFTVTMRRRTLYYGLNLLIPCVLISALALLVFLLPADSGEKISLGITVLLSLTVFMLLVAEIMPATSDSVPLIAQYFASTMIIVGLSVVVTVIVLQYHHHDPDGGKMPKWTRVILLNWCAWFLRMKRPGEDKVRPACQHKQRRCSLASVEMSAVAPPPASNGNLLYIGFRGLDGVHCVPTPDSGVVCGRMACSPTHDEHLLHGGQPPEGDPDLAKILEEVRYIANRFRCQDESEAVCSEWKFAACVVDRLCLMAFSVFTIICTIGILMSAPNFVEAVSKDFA

SMILES | EC50 [1] | EC50 [2]
COc1ccc(Cl)cc1-c1noc(C2CC23CCN(S(=O)(=O)CC2CCCCO2)CC3)n1 (mixture of isomers) [Example B3] | 500 to 5000 nM | 1300 nM
COc1ccc(Cl)cc1-c1noc(C2CC23CCN(S(=O)(=O)Cc2ccccn2)CC3)n1 (racemic) [Example B1] | 500 to 5000 nM | 2300 nM
COc1ccc(Cl)cc1-c1noc(C2CC23CCN(S(=O)(=O)c2ccsc2)CC3)n1 (racemic) [Example B2] | 500 to 5000 nM | –
COc1ccc(Cl)cc1-c1noc(C2CC23CCN(S(=O)(=O)c2ccn(C)n2)CC3)n1 (racemic) [Example B4] | 500 to 5000 nM | 3200 nM
COc1ccc(Cl)cc1-c1noc(C2CC23CCN(S(=O)(=O)CCc2ccccc2)CC3)n1 (racemic) [Example B5] | 500 to 5000 nM | 3000 nM
COc1ccc(Cl)cc1-c1noc(C2CC23CCN(S(=O)(=O)c2cccc4nonc24)CC3)n1 (racemic) [Example B6] | 500 to 5000 nM | –
COc1ccc(Cl)cc1-c1noc(C2CC23CCN(S(=O)(=O)c2ccc4ncsc4c2)CC3)n1 (racemic) [Example B7] | 500 to 5000 nM | 3300 nM
COc1ccc(Cl)cc1-c1noc(C2CC23CCN(S(=O)(=O)c2c(O)no[n+]2C)CC3)n1 (racemic) [Example B8] | 500 to 5000 nM | –
COc1ccc(Cl)cc1-c1noc(C2CC23CCN(C(=O)NC(C)(C)C)CC3)n1 (racemic) [Example B9] | 5000 to 50000 nM | 5400 nM
COc1ccc(Cl)cc1-c1noc(C2CC23CCN(C(=O)NC2CCCCC2)CC3)n1 (racemic) [Example B10] | 500 to 5000 nM | –
COc1ccc(Cl)cc1-c1noc(C2CC23CCN(S(=O)(=O)NCc2ccccn2)CC3)n1 (racemic) [Example B11] | 500 to 5000 nM | 3500 nM
COc1ccc(Cl)cc1-c1noc(C2CC23CCN(C(=O)NCc2ccns2)CC3)n1 (racemic) [Example B12] | 500 to 5000 nM | 3400 nM
COc1ccc(Cl)cc1-c1noc(C2CC23CCN(C(=O)NCc2ccccc2)CC3)n1 (racemic) [Example B13] | 5000 to 50000 nM | 5100 nM
COc1ccc(Cl)cc1-c1noc(C2CC23CCN(S(C)(=O)=O)CC3)n1 (racemic) [Example B14] | 500 to 5000 nM | 1100 nM
CNc1ncccc1-c1noc(C2CC23CCN(S(N)(=O)=O)CC3)n1 (racemic) [Example C1] | 500 to 5000 nM | 3600 nM
NS(=O)(=O)N1CCC2(CC1)CC2c1nc(-c2ccnc(N3CCCC3)c2)no1 (racemic) [Example C2] | 500 to 5000 nM | –
Cc1noc(C)c1-c1noc(C2C(F)(F)C23CCN(S(N)(=O)=O)CC3)n1 (racemic) [Example C3] | 100 to 500 nM | 400 nM
COc1ccc(Cl)cc1-c1noc(C2CC23CCN(S(N)(=O)=O)CC3)n1 (racemic) [Example C13] | 500 to 5000 nM | –
NS(=O)(=O)N1CCC2(CC1)C(c1nc(-c3ccc(F)cc3C(F)(F)F)no1)C2(Cl)Cl (racemic) [Example C17] | 500 to 5000 nM | 2700 nM
Cc1ccc(C)c(-c2noc(C3(C)C(F)(F)C34CCN(S(N)(=O)=O)CC4)n2)c1 (racemic) [Example C18] | 500 to 5000 nM | 1600 nM
COc1ccc(Cl)cc1-c1nc(C2CC23CCN(S(C)(=O)=O)CC3)no1 (single isomer, unassigned) [Example 26, 1-[5-(5-Chloro-2-methoxyphenyl)-1,2,4-oxadiazol-3-yl]-6-(methylsulfonyl)-6-azaspiro[2.5]octane] | 100 to 500 nM | 480 nM

Second part, the compound after the results:

EC50 [1] | EC50 [2] | SMILES
500 to 5000 nM | 1900 nM | CC(C)C1CC(c2nc([C@@H]3CC34CCN(S(N)(=O)=O)CC4)no2)C1 (mixture of isomers) [Example E3]
500 to 5000 nM | 3400 nM | CC1CCCC(c2nc([C@@H]3CC34CCN(S(N)(=O)=O)CC4)no2)C1 (mixture of isomers) [Example E7]
500 to 5000 nM | 3900 nM | CC(c1nc([C@@H]2CC23CCN(S(N)(=O)=O)CC3)no1)c1ccccc1Cl (mixture of isomers) [Example E8]
500 to 5000 nM | 4300 nM | NS(=O)(=O)N1CCC2(CC1)C[C@H]2c1noc(C2CCCCC23CC3)n1 (mixture of isomers) [Example E11]
500 to 5000 nM | 1300 nM | NS(=O)(=O)N1CCC2(CC1)C[C@H]2c1noc(C2CCc3c(F)cccc32)n1 (mixture of isomers) [Example E13]
500 to 5000 nM | 1500 nM | NS(=O)(=O)N1CCC2(CC1)C[C@H]2c1noc(C2CC(c3ccccc3)C2)n1 (mixture of isomers) [Example E15]
500 to 5000 nM | 820 nM | NS(=O)(=O)N1CCC2(C(F)C1)C(c1nc(-c3conc3C3CC3)no1)C2(F)F (mixture of isomers) [Example I11]
100 to 500 nM | 430 nM | Cc1ccc(C)c(-c2nc(C3C(F)(F)C34CCN(S(N)(=O)=O)C(C)C4)no2)c1 (mixture of isomers) [Example K2]
500 to 5000 nM | 760 nM | COc1ccc(Cl)cc1-c1nc(C2CC23CCN(S(C)(=O)=O)CC3)no1 (racemic) [Example J1]
500 to 5000 nM | 1000 nM | NS(=O)(=O)N1CCC2(CC1)C(c1nsc(N3CCCCC3)n1)C2(F)F (racemic) [Example J2]
500 to 5000 nM | 750 nM | NS(=O)(=O)N1CCC2(CC2c2nc(-c3cccc(OC(F)F)c3)no2)C(F)C1 (single isomer, unassigned) [Example I1]
500 to 5000 nM | 1000 nM | NS(=O)(=O)N1CCC2(CC2c2nc(-c3cccc(OC(F)F)c3)no2)C(F)C1 (single isomer, unassigned) [Example I2]
500 to 5000 nM | 2300 nM | NS(=O)(=O)N1CCC2(CC2c2nc(-c3ccccc3)no2)C(F)(F)C1 (single isomer, unassigned) [Example I3]
500 to 5000 nM | 1500 nM | Cc1ccc(C)c(-c2noc(C3CC34CCN(S(N)(=O)=O)CC4(F)F)n2)c1 (single isomer, unassigned) [Example I4]
500 to 5000 nM | 1200 nM | CC1CN(S(N)(=O)=O)CCC12CC2c1nc(-c2ccnc(OCC(F)(F)F)c2)no1 (single isomer, unassigned) [Example I5]
500 to 5000 nM | 840 nM | NS(=O)(=O)N1CCC2(CC2c2nc(-c3conc3C3CC3)no2)C(F)C1 (single isomer, unassigned) [Example I6]
500 to 5000 nM | 1500 nM | NS(=O)(=O)N1CCC2(CC2c2nc(-c3conc3C3CC3)no2)C(F)C1 (single isomer, unassigned) [Example I7]
5000 to 50000 nM | – | NS(=O)(=O)N1CCC2(CC2c2nc(-c3conc3C3CC3)no2)C(F)C1 (single isomer, unassigned) [Example I8]
500 to 5000 nM | 3300 nM | NS(=O)(=O)N1CCC2(CC2c2nc(-c3conc3C3CC3)no2)C(F)C1 (single isomer, unassigned) [Example I9]
500 to 5000 nM | 3400 nM | NS(=O)(=O)N1CCC2(CC2c2nc(-c3conc3C3CC3)no2)C(F)C1 (single isomer, unassigned) [Example I10]
500 to 5000 nM | 600 nM | NS(=O)(=O)N1CCC2(C(F)C1)C(c1nc(-c3conc3C3CC3)no1)C2(F)F (single isomer, unassigned) [Example I13]
